Data as given in article PMC10686989, “Distinct activation mechanisms of β-arrestin-1 revealed by ^19F NMR spectroscopy” (Nature Communications, 2023).

Columns and labels:
[1] = system: βarr1-ΔCT (residues 1–382); test: 19F NMR (1D and CEST) of CT-truncated construct; type: biochemical, human; settings: E206C site; PIP2 added to pre-activated ΔCT state
Description: (§1) The cysteine-less mutant (C59V/C125S/C140L/C150V/C242V/C251V/C269S) of the long splice variant of human βarr1 was used for introduction of single site cysteine mutation for ^19F labeling. The sequence was codon-optimized for expression in Escherichia coli and cloned into a pET-28a(+) vector (Novagen), with an N-terminal 6xHis-tag, followed by an SSG linker and a thrombin cleavage site. All mutants, including the 1–382 (βarr1-ΔCT) and 1–395 truncation constructs, were generated using site-directed mutagenesis kits (Thermo Fisher). Primer sequences for generating the mutants are listed in Supplementary Table 4.
The ^19F-labeled βarr1 was diluted to 50 μM using buffer E before incubation with peptides or PIP2. The V2Rpp, β2AR-GRK2pp/GRK6pp or PIP2 were added at 1.2-fold, 3-fold, and 1.5-fold molar ratio excess to the protein, respectively. […]
All ^19F NMR spectra were recorded at 298 K using a Bruker AVANCE III HD 800 MHz spectrometer equipped with a ^1H-^19F/^13C/^15N TCI triple resonance cryogenic probe. […] The carrier frequency was set to −68.0 ppm and the spectra were recorded with 4k points and a spectral width of 15,000 Hz. […]
All NMR data were analyzed using the MestraNova 12.0.0 software (https://mnova.pl). […] Peak intensities, integrated peak area and linewidths were determined based on the fitted results. […]

[2] = target: T1, βarr1 (Homo sapiens, UniProt P49407, C125S/C140L/C150V/C242V/C251V/C269S/C59V/D390C); test: 1D 19F NMR of site-specifically 19F (wPSP-6F)-labeled βarr1; type: biochemical; settings: for Linewidth: 298 K, pH 8.0
T1 construct: we started from a full-length functional cysteine-less βarr1 construct[20]; 6xHis-tag with SSG linker and thrombin cleavage site (N, cleaved yes); made in house; host or cells: E. coli BL21(DE3)
Description: as §1
Each single-cysteine mutant of βarr1 was diluted to a concentration of 50 μM to be labeled using the sulfoxide-based ^19F probe wPSP-6F[21],[44]. The wPSP-6F stock dissolved in buffer E was added into the protein sample at 1.5-fold molar ratio excess and incubated at 4 °C for 1 h, followed by quenching with twofold molar ratio of dithiothreitol. The sample was then fully exchanged using buffer E to remove excess of small molecules, and subjected to a second round of SEC purification. The purified proteins were concentrated to 100 μM, flash-frozen in liquid nitrogen and stored at −80 °C until use. The purities of all samples were verified by SDS-PAGE.
The ^19F-labeled βarr1 was diluted to 50 μM using buffer E before incubation with peptides or PIP2. The V2Rpp, β2AR-GRK2pp/GRK6pp or PIP2 were added at 1.2-fold, 3-fold, and 1.5-fold molar ratio excess to the protein, respectively. For the membrane-bound sample, the reconstituted nanodiscs were added at twofold molar ratio of βarr1. All complexes were incubated at 25 °C for 1 h, and the freshly prepared samples were immediately subjected to ^19F NMR experiments.
NMR samples were prepared in buffer E to a final volume of 140 μL, supplemented with 1 mM DTT, 10% D2O for field lock, and 1 μM sodium trifluoroacetate (STFA) as the internal chemical shift reference. All samples were sterile-filtered and loaded into sterile 3 mm NMR microtubes to prevent microbial contamination. Final protein concentrations vary for different constructs, depending on their expression levels and stabilities, but all in the range of 20–50 μM.
All ^19F NMR spectra were recorded at 298 K using a Bruker AVANCE III HD 800 MHz spectrometer equipped with a ^1H-^19F/^13C/^15N TCI triple resonance cryogenic probe. All data were acquired and processed using the Bruker Topspin 4.2.0 software. For all 1D ^19F NMR experiments, the traditional one-pulse sequence was used. The carrier frequency was set to −68.0 ppm and the spectra were recorded with 4k points and a spectral width of 15,000 Hz. Because accurate calibration of the 90° excitation pulse length for individual samples is not practical due to the low protein concentrations, we used the 90° pulse length calibrated from a standard sample (0.05% Trifluoro-toluene in CDCl3) for all βarr1 samples. […] Therefore, all the ^19F experiments were conducted with a 100 ms relaxation delay, and acquired using 100,000–200,000 scans depending on the sample condition, yielding a signal-to-noise (S/N) ratio of approximately 50. SDS-PAGE were run for all samples before and after NMR experiments to ensure that no protein degradation occurs during the experiments.
All NMR data were analyzed using the MestraNova 12.0.0 software (https://mnova.pl). The spectra were baseline-corrected by the Whittaker Smoother method and applied with a 30 Hz exponential windows function. The ^19F chemical shifts were referenced to STFA at −75.450 ppm. All datasets were processed using the same variables to facilitate comparison. Spectral deconvolutions were performed assuming generalized Lorentzian line shapes. To distinguish overlapping resonances, a LB value of 3 Hz was initially applied to ensure the highest resolution and determine the exact chemical shift values. The spectra were subsequently fitted iteratively using an LB value of 30 Hz. […]

T1 sequence (P49407 whole entry C59V/C125S/C140L/C150V/C242V/C251V/C269S/D390C): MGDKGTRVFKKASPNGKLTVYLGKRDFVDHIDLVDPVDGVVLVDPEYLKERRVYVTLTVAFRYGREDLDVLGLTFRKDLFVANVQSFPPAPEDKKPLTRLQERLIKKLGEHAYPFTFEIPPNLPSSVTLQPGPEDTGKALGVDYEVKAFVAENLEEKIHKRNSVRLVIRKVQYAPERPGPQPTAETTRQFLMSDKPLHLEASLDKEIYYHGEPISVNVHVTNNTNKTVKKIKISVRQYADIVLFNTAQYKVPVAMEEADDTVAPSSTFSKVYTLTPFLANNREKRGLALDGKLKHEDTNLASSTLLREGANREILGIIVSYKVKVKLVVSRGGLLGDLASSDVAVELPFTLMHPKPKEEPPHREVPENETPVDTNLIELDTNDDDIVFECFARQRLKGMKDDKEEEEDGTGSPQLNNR

CCCCCCCC(=O)OC[C@H](COP(=O)(O)O[C@@H]1[C@H](O)[C@H](O)[C@@H](OP(=O)(O)O)[C@H](OP(=O)(O)O)[C@H]1O)OC(=O)CCCCCCC [PIP2, diC8-PI(4,5)P2]
Active S2 conformation [1]: increases the active S2 conformation
Linewidth ([2]; 1T36 site, ligand-bound state (V2Rpp 1.2-fold, PIP2 1.5-fold), basal 107): 102 Hz
Linewidth increase upon PIP2 binding ([2]; C242 site): ~ 50%
Linewidth ([2]; C242 site, PIP2 1.5-fold, basal 80): 120 Hz
Linewidth ([2]; C269 site, PIP2 1.5-fold, basal 58): 56 Hz
Linewidth increase upon PIP2 binding ([2]; D240C site): ~75%
Linewidth ([2]; D240 site, PIP2 1.5-fold, basal 75): 133 Hz
Linewidth of the S2 resonance ([2]; D390C site, released conformation, V2Rpp 1.2-fold or PIP2 1.5-fold): > 200 Hz
CT displacement/release ([2]; D390C site, V2Rpp 1.2-fold, PIP2 1.5-fold): very slight increase of the active S2 peak at the D390C site
Linewidth ([2]; D390 site, ligand-bound state (V2Rpp 1.2-fold, PIP2 1.5-fold), basal 87): 92 Hz
Linewidth increase upon PIP2 binding ([2]; E206C site): < 10%
Spectral change at E206C ([2]; E206C site, PIP2 alone): no obvious changes at this site
Linewidth ([2]; E206 site, ligand-bound state (V2Rpp 1.2-fold, PIP2 1.5-fold), basal 120): 129 Hz
Linewidth increase upon PIP2 binding ([2]; E283C site): < 10%
Linewidth ([2]; E283 site, PIP2 1.5-fold, basal 99): 106 Hz
Linewidth increase upon PIP2 binding ([2]; E313C site): ~ 50%
Linewidth ([2]; E313 site, ligand-bound state (V2Rpp 1.2-fold, PIP2 1.5-fold), basal 88): 136 Hz
Linewidth ([2]; E404 site, ligand-bound state (V2Rpp 1.2-fold, PIP2 1.5-fold), basal 51): 57 Hz
Linewidth ([2]; F244 site, ligand-bound state (V2Rpp 1.2-fold, PIP2 1.5-fold), basal 123): 200 Hz
Linewidth increase upon PIP2 binding ([2]; F277C site): < 10%
Linewidth ([2]; F277 site, PIP2 1.5-fold, basal 68): 68 Hz
Linewidth ([2]; H198 site, PIP2 1.5-fold, basal 107): 115 Hz
S2 population ([2]; H295C site, PIP2 alone, 1.5-fold): ~ 68%
S2 population ([2]; H295C site, PIP2 co-added with GRK2/6-phosphorylated β2AR peptides): ~ 55%
Gate loop conformational change (S2 state) ([2]; H295C site, V2Rpp 1.2-fold, β2AR peptides 3-fold, PIP2 1.5-fold, nanodiscs twofold): dramatic, albeit incomplete transition to the S2 state
Linewidth ([2]; H295 site, ligand-bound state (V2Rpp 1.2-fold, PIP2 1.5-fold), basal 230): 362 Hz
Linewidth ([2]; L68 site, ligand-bound state (V2Rpp 1.2-fold, PIP2 1.5-fold), basal 89): 101 Hz
Linewidth ([2]; L71 site, ligand-bound state (V2Rpp 1.2-fold, PIP2 1.5-fold), basal 62): 73 Hz
Linewidth ([2]; L100 site, ligand-bound state (V2Rpp 1.2-fold, PIP2 1.5-fold), basal 247): 242 Hz
Linewidth ([2]; L191 site, PIP2 1.5-fold, basal 58): 75 Hz
Linewidth ([2]; L293 site, ligand-bound state (V2Rpp 1.2-fold, PIP2 1.5-fold), basal 113): 141 Hz
Linewidth ([2]; L334 site, ligand-bound state (V2Rpp 1.2-fold, PIP2 1.5-fold), basal 50): 87 Hz
Linewidth ([2]; N375 site, ligand-bound state (V2Rpp 1.2-fold, PIP2 1.5-fold), basal 46): 48 Hz
Linewidth ([2]; T6 site, ligand-bound state (V2Rpp 1.2-fold, PIP2 1.5-fold), basal 71): 70 Hz
Linewidth ([2]; T183 site, ligand-bound state (V2Rpp 1.2-fold, PIP2 1.5-fold), basal 67): 89 Hz
New peak ([2]; Y63C site, PIP2 1.5-fold): appearance of a new peak S3
Spectral changes in the central crest ([2]; Y63C, L68C, L71C, T136C, F244C, V2Rpp 1.2-fold, β2AR peptides 3-fold, PIP2 1.5-fold): apparently perturbs Y63C and F244C while having little effect on the other sites
Linewidth ([2]; Y63 site, ligand-bound state (V2Rpp 1.2-fold, PIP2 1.5-fold), basal 118): 206 Hz
